Here are results for 27 molecules from patent US20250275988A1, “FORMULATION FOR TREATING URINARY SYSTEM DISORDERS” (WATERSHED MEDICAL, INC., priority 2022, published 2025).

Values after ≈ are worked out from the molar mass of the structure shown. Like-named read-outs stand apart in the source and are kept apart here. Some results are limits rather than exact numbers.

Series [1] relates to MDR Ecoli and non-MDR Ecoli isolates. The series can be described thus: MIC90 of antimicrobial agents. The format is cell-based.
Series [2] in a line: anti-bacterial properties of SSD degradation products. To be noted: compared with SSD before degradation in the bladder. The source says: These degradation products include, for example, sulfanilic acid; sulfanilamide; sulfaguanidine, the guanidine derivative of sulfanilamide; and […].
Series [3] in a line: density and max drug loading of antimicrobial agents considered for carrier particles. To be noted: Table 7. It is filed as physicochemical.
The conditions of series [4]: cited from earlier work.
A short description of another series: density of materials. The format is physicochemical. To be noted: Table 4.
[5] abbreviates: agents marked *: tested against both MDR Ecoli and non-MDR Ecoli isolates.
The mark [6] stands for this setting: tested against non-MDR Ecoli isolates only.
Setting [7] is: tested against non-MDR Ecoli isolates only, read-out: MIC90.
Where [8] appears, read: agents marked *: tested against both MDR Ecoli and non-MDR Ecoli isolates, read-out: MIC90.

Molecule Polymxin B had an MIC90 in series [1] (setting [5]) of 1 ppm. In series [1] (setting [6]), Cefoperazone-sulbactam displayed an MIC90 of 4 ppm.

`Nc1ccc(S(=O)(=O)O)cc1` [sulfanilic acid]: the anti-bacterial properties result in series [2] is recorded as “comparable to the original compound”. `CN(C)c1cc(NC(=O)CNC(C)(C)C)c(O)c2c1C[C@H]1C[C@H]3[C@H](N(C)C)C(O)=C(C(N)=O)C(=O)[C@@]3(O)C(O)=C1C2=O` [Tigecycline] displayed a Density in series [3] of 1.5 g/mL. The same molecule yielded an MIC90 in series [1] of 0.25 µg/mL (≈ 0.427 µM). For `C[C@@H](O)[C@H]1C(=O)N2C(C(=O)O)=C(S[C@@H]3CN[C@H](C(=O)N(C)C)C3)[C@H](C)[C@H]12` [Meropenem], in series [3], the Density came out at 1.4 g/mL. Further, the MIC90 in series [1] (setting [7]) was not above 0.06 µg/mL. With `[H]/N=C(/N)NS(=O)(=O)c1ccc(N)cc1` [sulfaguanidine], the anti-bacterial properties result in series [2] is on record as “comparable to the original compound”. As for `NCC[C@H](O)C(=O)N[C@@H]1C[C@H](N)[C@@H](O[C@H]2O[C@H](CN)[C@@H](O)[C@H](O)[C@H]2O)[C@H](O)[C@H]1O[C@H]1O[C@H](CO)[C@@H](O)[C@H](N)[C@H]1O` [Amikacin], in series [3], the Density worked out at 1.6 g/mL. The solubility in water in series [4] is 50 mg/mL (≈ 85400 µM). In addition, in series [1] (setting [8]), the MIC90 came out at 4 µg/mL (≈ 6.83 µM).

`CO[C@@]1(NC(=O)Cc2cccs2)C(=O)N2C(C(=O)O)=C(COC(N)=O)CS[C@@H]21` [Cefoxitin] showed a Density in series [3] of 1.6 g/mL. Moreover, in series [1] (setting [7]), the MIC90 is 16 µg/mL (≈ 37.4 µM). The molecule `CO/N=C(\C(=O)N[C@@H]1C(=O)N2C(C(=O)[O-])=C(C[N+]3(C)CCCC3)CS[C@H]12)c1csc(N)n1` [Cefepime] displayed a Density in series [3] of 1.6 g/mL. Further, the MIC90 in series [1] (setting [7]) is 8 µg/mL (≈ 16.6 µM). The molecule Cefoperazone-tazobacatam showed a Density in series [3] of 1.5 g/mL. Also, the MIC90 in series [1] (setting [5]) was 0.5 ppm. In turn, Colistin came in with an MIC90 in series [1] (setting [5]) not above 0.5 ppm. As to `CC(C)(O/N=C(\C(=O)N[C@@H]1C(=O)N2C(C(=O)[O-])=C(C[n+]3ccccc3)CS[C@H]12)c1csc(N)n1)C(=O)O` [Ceftazidime], in series [3], the Density turned out to be 1.6 g/mL. In series [1] (setting [7]), the MIC90 was 8 µg/mL (≈ 14.6 µM).

Take `C[C@@H](O)[C@H]1C(=O)N2C(C(=O)O)=C(S[C@@H]3CN[C@H](CNS(N)(=O)=O)C3)[C@H](C)[C@H]12` [Doripenem]: the MIC90 in series [1] (setting [7]) is not above 0.12 µg/mL. In series [3], `C[C@H]1[C@H](NC(=O)/C(=N\OC(C)(C)C(=O)O)c2csc(N)n2)C(=O)N1S(=O)(=O)O` [Aztreoman] gave a Density of 1.83 g/mL. The MIC90 in series [1] (setting [7]) was 16 µg/mL (≈ 36.7 µM). Molecule `CCCCCCCCCCCCCCCCCC(=O)OCC(COC(=O)CCCCCCCCCCCCCCCCC)OC(=O)CCCCCCCCCCCCCCCCC` [Glyceryl tristearate] registered a Density in the series “density of materials” of 0.862 g/mL. Still for that read-out and setting: with `CCCCCCCCCCCCCCCCCCO` [Stearyl alcohol] the figure was 0.812 g/mL.

For `C[C@@H](O)[C@H]1C(=O)N2C(C(=O)O)=C(SCCN=CN)C[C@H]12` [Imipenem], in series [1] (setting [8]), the MIC90 was not above 0.12 µg/mL.

For the molecule Cefoperazone-avibactam, the Density in series [3] was 1.5 g/mL. In series [1] (setting [5]), this molecule registered an MIC90 of 0.25 ppm.

Turning to `[H]/N=C(\N/C(=N/[H])NCCCCCCNC(=N)NC(=N)Nc1ccc(Cl)cc1)Nc1ccc(Cl)cc1` [Chlorohexidine], in series [3], the Density worked out at 1.06 g/mL. For the same molecule, the MIC90 in series [1] (setting [7]) was determined as 3 µg/mL (≈ 5.94 µM).

Take `Nc1ccc(S(N)(=O)=O)cc1` [sulfanilamide]: the anti-bacterial properties result in series [2] is given as “comparable to the original compound”.

Turning to `Nc1ccccn1` [2-aminopyridine], in series [2], the anti-bacterial properties result was “comparable to the original compound”. In turn, `C[C@@H](O)[C@H]1C(=O)N2C(C(=O)O)=C(S[C@@H]3CN[C@H](C(=O)Nc4cccc(C(=O)O)c4)C3)[C@H](C)[C@H]12` [Ertapenem] had a Density in series [3] of 1.6 g/mL. For the same molecule, the MIC90 in series [1] (setting [8]) came out at 0.03 µg/mL (≈ 0.0631 µM). In series [3], Piperacillin-tazobactam showed a Density of 1.5 g/mL. Besides, in series [1] (setting [6]), the MIC90 stood at 4 ppm. With `CCCCCCCCCCCCCCCC(=O)OCC(COC(=O)CCCCCCCCCCCCCCC)OC(=O)CCCCCCCCCCCCCCC` [Glyceryl tripalmitate], the Density in the series “density of materials” was 0.8752 g/mL.

In series [3], `NC[C@H]1O[C@H](O[C@H]2[C@H](O)[C@@H](O[C@H]3O[C@H](CO)[C@@H](O)[C@H](N)[C@H]3O)[C@H](N)C[C@@H]2N)[C@H](N)C[C@@H]1O` [Tobramycin] registered a Density of 1.5 g/mL. The MIC90 in series [1] (setting [7]) was 8 µg/mL (≈ 17.1 µM).

As for `CCCCCCCCCCCCCC(=O)OCC(COC(=O)CCCCCCCCCCCCC)OC(=O)CCCCCCCCCCCCC` [Glyceryl trimyristate], the Density in the series “density of materials” is 0.885 g/mL. Still for that read-out and setting: the result for `CCCCCCCCCCCCCCCCCCCCCC(=O)OCC(O)CO` (centres unmarked) [Glyceryl behenate] reads 0.942 g/mL.
